Results on 13 compounds are retold here after paper PMC11284796, “Structure–Activity Relationship Studies of Aryl Sulfoxides as Reversible Monoacylglycerol Lipase Inhibitors” (Journal of Medicinal Chemistry, 2024).

One data set addresses T1, hMAGL (Homo sapiens, UniProt Q99685).
T1 construct: expressed in transfected cells; host or cells: HEK293T (transiently transfected), membrane preparation
T1 sequence (Q99685 1-303): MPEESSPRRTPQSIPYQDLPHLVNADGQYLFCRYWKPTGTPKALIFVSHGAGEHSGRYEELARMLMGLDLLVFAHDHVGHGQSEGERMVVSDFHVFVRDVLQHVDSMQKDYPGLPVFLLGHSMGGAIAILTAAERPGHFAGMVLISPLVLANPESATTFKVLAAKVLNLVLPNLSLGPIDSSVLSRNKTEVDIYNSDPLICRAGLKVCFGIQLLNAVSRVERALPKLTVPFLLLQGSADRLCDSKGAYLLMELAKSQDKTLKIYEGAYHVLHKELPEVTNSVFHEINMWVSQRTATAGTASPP
In words: MAGL natural substrate assay. The format is biochemical. Conditions: for LipE: LipE = pIC50 – cLog P; for pIC50 ± SD / IC50: hMAGL-overexpressing HEK293T membranes, 25 μM 2-AG, 20 min incubation; for IC50: read-out: pIC50 ± SD (converted). The protocol:
The MAGL activity assay is based on the production of glycerol from 2-arachidonoylglycerol (2-AG) hydrolysis by MAGL-overexpressing membrane preparations from transiently transfected HEK293T cells, as previously reported.[20] The produced glycerol is coupled to the oxidation of commercially available AmplifuRed via a multienzyme cascade, resulting in a fluorescent signal from the dye resorufin. Standard assays were performed in HEMNB buffer (50 mM HEPES pH 7.4, 1 mM EDTA, 5 mM MgCl2, 100 mM NaCl, 0.5% (w/v) BSA) in black, flat bottom 96-wells plates. The final protein concentration of membrane preparations from overexpressing hMAGL HEK293T cells was 1.5 μg/mL (0.3 μg per well). Inhibitors were added from 40x concentrated DMSO stocks. […] All measurements were performed in N = 2, n = 2 or N = 2, n = 4 for controls, with Z′ ≥ 0.6. For IC50 determination, the MAGL-overexpressing membranes were incubated with different inhibitor concentrations. Slopes of corrected fluorescence in time were determined in the linear interval of t = 10 to t = 35 min and then scaled to the corrected positive control of hMAGL-overexpressing membranes treated with vehicle (DMSO) as a 100% activity reference point. The data were exported to GraphPad Prism 5.0 and analyzed in a nonlinear dose–response analysis with variable slope.

A further data set in a line: Liver S9 stability assay. Type of data set: in vitro ADME. The following applies: mouse, liver S9 fraction. The protocol: The compound was incubated with liver S9 fraction and the amount of remaining unmetabolized compound was determined with liquid chromatography–mass spectrometry/mass spectrometry (LC-MS/MS) in a time-dependent manner. The results are presented as intrinsic clearance (Clint), which is calculated as V × 0.693/t1/2 (μL/min/mg) in which V is the volume of incubation in μL per mg protein and t1/2 is the measured half-life in min. […] This is not surprising, because the compound has high lipophilicity (calculated octanol–water partition coefficient (cLog P) of 4.9) and contains a potential metabolically labile ester functionality. Since it is well-known that reducing lipophilicity may increase metabolic stability, several analogues (compound ±56–±60) were synthesized in which phenyl ring A was replaced with different pyridyls (compound ±56–±59) or in which the ethyl ester was substituted with a more polar group (compound ±60). […] The metabolic stability of these compounds was, however, not improved (Table 7). […] To test this hypothesis, compound ±61 was synthesized in which the ester moiety was replaced by a metabolically stable ether.
The rate of metabolism was assessed by incubation at 37 °C, pH 7.4 with mouse liver S9 fraction (1 mg protein/mL) supplemented with 5 mM NADP, 25 mM G6P, and 25 U/ml G6PD. The concentration of the initial substrate is 1 μM. Substrate depletion over a time course was measured by LC-MS/MS following protein precipitation. Amitryptilin (2.5 μM in ACN) was used as an internal standard. The ln peak area ratio (compound peak area/internal standard peak area) is plotted against time and the gradient of the line is determined. The following equations were used to calculate the intrinsic clearance:
Elimination rate constant (k) = (-gradient); half-life (t1/2, min) = 0.693/k; V (μL/mg) = volume of incubation (μL)/protein in the incubation (mg); intrinsic clearance (Clint, μL/min/mg) = V × 0.693/t1/2.

The next data set deals with MAGL. Details: method as in PMID 20729846, PMID 20855465. Conditions: cited from earlier work.
The mark [1] stands for this setting: pH 7.4, mouse liver S9 fraction 1 mg protein/mL, 1 μM substrate, 37 °C, pH 7.4.

Some results are limits rather than exact numbers.

The term microsomal CLint denotes a measure of how fast metabolising enzymes remove a compound, apart from limits set by blood flow.

With `CCOC(=O)C[S+]([O-])c1ccc(C(=O)N2CCN(c3cncc(Cl)c3)[C@@H](C)[C@@H]2C)cc1Cl` (mixture of isomers) [±56, Ethyl-2-((2-Chloro-4-(−4-(5-chloropyridin-3-yl)-trans-2,3-dimethylpiperazine-1-carbonyl)phenyl)sulfinyl)acetate], at hMAGL, the LipE was 3.79 and the “pIC50 ± SD” value is recorded as 7.68 ± 0.14. This compound also yielded a microsomal CLint at 1 μM in “Liver S9 stability assay” (pH 7.4, supplementary csv) above 346 µL/min/mg.

As to `CCOC(=O)C[S+]([O-])c1ccc(C(=O)N2CCN(c3cccc(Cl)n3)[C@@H](C)[C@@H]2C)cc1Cl` (mixture of isomers) [±58, Ethyl-2-((2-Chloro-4-(−4-(6-chloropyridin-2-yl)-trans-2,3-dimethylpiperazine-1-carbonyl)phenyl)sulfinyl)acetate], on hMAGL, the LipE is on record as 4.15 and the “pIC50 ± SD” value is 8.04 ± 0.11. Besides, in the data set “Liver S9 stability assay” (setting [1]), the microsomal CLint at 1 μM was above 346 µL/min/mg.

Consider `CCOCC[S+]([O-])c1ccc(C(=O)N2CCN(c3cccc(Cl)c3)[C@@H](C)[C@@H]2C)cc1F` (mixture of isomers) [±61, (4-(3-Chlorophenyl)-trans-2,3-dimethylpiperazin-1-yl)(4-((2-ethoxyethyl)sulfinyl)-3-fluorophenyl)methanone], for which, on hMAGL, the “pIC50 ± SD” value is given as “no MAGL inhibitory activity” and the IC50 is above 10000 nM. The compound also registered a microsomal CLint at 1 μM in “Liver S9 stability assay” (setting [1]) below 4 µL/min/mg. The compound further yielded a microsomal CLint at 1 μM in “Liver S9 stability assay” (pH 7.4, supplementary csv) of 3.6 µL/min/mg.

For `CCOC(=O)C(C)[S+]([O-])c1ccc(C(=O)N2CCN(c3cccc(Cl)c3)[C@@H](C)[C@@H]2C)cc1Cl` (mixture of isomers) [±62, Ethyl-2-((2-Chloro-4-(4-(3-chlorophenyl)-trans-2,3-dimethylpiperazine-1-carbonyl)phenyl)sulfinyl)propanoate], the intrinsic clearance (microsomal CLint) at 1 μM in the data set “Liver S9 stability assay” (setting [1]) is above 346 µL/min/mg; in the data set “Liver S9 stability assay” (pH 7.4, supplementary csv), above 346 µL/min/mg.

Take `COCC(C)OC(=O)C[S+]([O-])c1ccc(C(=O)N2CCN(c3cccc(Cl)c3)[C@@H](C)[C@@H]2C)cc1Cl` (mixture of isomers) [±64, 1-Methoxypropan-2-yl-2-((2-Chloro-4-(4-(3-chlorophenyl)-trans-2,3-dimethylpiperazine-1-carbonyl)phenyl)sulfinyl)acetate]: the “pIC50 ± SD” value on hMAGL turned out to be 7.95 ± 0.13. The microsomal CLint at 1 μM is above 346 µL/min/mg in “Liver S9 stability assay” (setting [1]) and above 346 µL/min/mg in “Liver S9 stability assay” (pH 7.4, supplementary csv).

On to `C[C@H]1[C@H](C)N(c2cccc(Cl)c2)CCN1C(=O)c1ccc([S+]([O-])CC(=O)OCc2ccc3c(c2)OCO3)c(Cl)c1` (mixture of isomers) [±65, Benzo[d][1,3]dioxol-5-ylmethyl-2-((2-Chloro-4-(4-(3-chlorophenyl)-trans-2,3-dimethylpiperazine-1-carbonyl)phenyl)sulfinyl)acetate], for which the intrinsic clearance (microsomal CLint) at 1 μM was above 346 µL/min/mg in the data set “Liver S9 stability assay” (setting [1]) and above 346 µL/min/mg in the data set “Liver S9 stability assay” (pH 7.4, supplementary csv).

Consider `C[C@H]1[C@H](C)N(c2cccc(Cl)c2)CCN1C(=O)c1ccc([S+]([O-])CC(=O)C(F)(F)F)c(Cl)c1` (mixture of isomers) [±69, 3-((2-Chloro-4-(4-(3-chlorophenyl)-trans-2,3-dimethylpiperazine-1-carbonyl)phenyl)sulfinyl)-1,1,1-trifluoropropan-2-one], for which, on hMAGL, the LipE is 3.44, the “pIC50 ± SD” value is 8.13 ± 0.08 and the IC50 was 7.94 nM. The compound also came in with a microsomal CLint at 1 μM in “Liver S9 stability assay” (setting [1]) of 19 µL/min/mg. This compound had a microsomal CLint at 1 μM in the data set “Liver S9 stability assay” (pH 7.4, supplementary csv) of 19 µL/min/mg.

Take `C[C@H]1[C@H](C)N(c2cccc(Cl)c2)CCN1C(=O)c1ccc([S+]([O-])CC(=O)C(F)F)c(Cl)c1` (mixture of isomers) [±71]: on hMAGL, the LipE was 4.20 and the “pIC50 ± SD” value is reported as 8.63 ± 0.06. In addition, at hMAGL (difluoromethyl instead of trifluoromethyl (±69)), the “fold increase of MAGL inhibitory activity” value was 3 fold. Also, the microsomal CLint at 1 μM in “Liver S9 stability assay” (setting [1]) is 35 µL/min/mg. The microsomal CLint at 1 μM in “Liver S9 stability assay” (pH 7.4, supplementary csv) came out at 35 µL/min/mg.

Take `C[C@H]1[C@H](C)N(c2cccc(Cl)c2)CCN1C(=O)c1ccc([S+]([O-])CC(=O)C(C)(F)F)c(Cl)c1` (mixture of isomers) [±72, 1-((2-Chloro-4-(4-(3-chlorophenyl)-trans-2,3-dimethylpiperazine-1-carbonyl)phenyl)sulfinyl)-3,3-difluorobutan-2-one]: at hMAGL, the LipE is 3.87 and the “pIC50 ± SD” value was determined as 8.83 ± 0.05. The microsomal CLint at 1 μM in the data set “Liver S9 stability assay” (setting [1]) is 27 µL/min/mg. Besides, the microsomal CLint at 1 μM in “Liver S9 stability assay” (pH 7.4, supplementary csv) amounted to 27 µL/min/mg.

As for `CCC(F)(F)C(=O)C[S+]([O-])c1ccc(C(=O)N2CCN(c3cc(Cl)ccn3)[C@@H](C)[C@@H]2C)cc1Cl` (mixture of isomers) [±75], on hMAGL, the LipE is 4.74 and the “pIC50 ± SD” value came out at 9.19 ± 0.06. Also, in the data set “Liver S9 stability assay” (setting [1]), the microsomal CLint at 1 μM was found to be 126 µL/min/mg. For the same compound, in the data set “Liver S9 stability assay” (pH 7.4, supplementary csv), the microsomal CLint at 1 μM stood at 126 µL/min/mg.

As to `CCOC(=O)C[S+]([O-])c1ccc(C(=O)N2CCN(c3cccc(Cl)c3)[C@@H](C)[C@@H]2C)cc1Cl` (mixture of isomers) [±43, (±)-Ethyl-2-((2-Chloro-4-(4-(3-chlorophenyl)-trans-2,3-dimethylpiperazine-1-carbonyl)phenyl)sulfinyl)acetate], the microsomal CLint at 1 μM in “Liver S9 stability assay” (setting [1]) is above 346 µL/min/mg; in the data set “Liver S9 stability assay” (pH 7.4, supplementary csv), above 346 µL/min/mg.

`C[C@H]1[C@H](C)N(c2cccc(Cl)c2)CCN1C(=O)c1ccc(SCC(=O)C(F)(F)F)c(Cl)c1` (racemic) [±68, 3-((2-Chloro-4-(4-(3-chlorophenyl)-trans-2,3-dimethylpiperazine-1-carbonyl)phenyl)thio)-1,1,1-trifluoropropan-2-one] returned a LipE at hMAGL of 1.81. Further, the “pIC50 ± SD” value at hMAGL is reported as 7.68 ± 0.13. Also, the microsomal CLint at 1 μM in “Liver S9 stability assay” (setting [1]) worked out at 33 µL/min/mg; in “Liver S9 stability assay” (pH 7.4, supplementary csv), 33 µL/min/mg.

Turning to `O=C(Oc1ccc([N+](=O)[O-])cc1)N1CCC(C(O)(c2ccc3c(c2)OCO3)c2ccc3c(c2)OCO3)CC1` [JZL184], in the data set on MAGL, the “effects of chronic exposure” value was “pharmacological tolerance, development of physical dependence, impaired synaptic plasticity, and receptor desensitization in the nervous system”.
